Experimental data from ChEMBL document CHEMBL4823315 (Bioorg Med Chem Lett, 2021).

Legend:
[1] = Inhibition of p70S6K (unknown origin); parameters: species or system Homo sapiens
[2] = biological target: Serine/threonine-protein kinase AKT (Homo sapiens, UniProt P31751+Q9Y243+P31749); test: Inhibition of Akt (unknown origin); type: protein assay
[3] = Inhibition of Akt/p70S6K in human MDA-MB-436 cells assessed as inhibition of S6 phosphorylation; type: cell-based
[4] = biological target: Voltage-gated inwardly rectifying potassium channel KCNH2 (Homo sapiens, UniProt Q12809); test: Inhibition of human ERG by patch clamp assay
Voltage-gated inwardly rectifying potassium channel KCNH2, sequence (Q12809 whole entry): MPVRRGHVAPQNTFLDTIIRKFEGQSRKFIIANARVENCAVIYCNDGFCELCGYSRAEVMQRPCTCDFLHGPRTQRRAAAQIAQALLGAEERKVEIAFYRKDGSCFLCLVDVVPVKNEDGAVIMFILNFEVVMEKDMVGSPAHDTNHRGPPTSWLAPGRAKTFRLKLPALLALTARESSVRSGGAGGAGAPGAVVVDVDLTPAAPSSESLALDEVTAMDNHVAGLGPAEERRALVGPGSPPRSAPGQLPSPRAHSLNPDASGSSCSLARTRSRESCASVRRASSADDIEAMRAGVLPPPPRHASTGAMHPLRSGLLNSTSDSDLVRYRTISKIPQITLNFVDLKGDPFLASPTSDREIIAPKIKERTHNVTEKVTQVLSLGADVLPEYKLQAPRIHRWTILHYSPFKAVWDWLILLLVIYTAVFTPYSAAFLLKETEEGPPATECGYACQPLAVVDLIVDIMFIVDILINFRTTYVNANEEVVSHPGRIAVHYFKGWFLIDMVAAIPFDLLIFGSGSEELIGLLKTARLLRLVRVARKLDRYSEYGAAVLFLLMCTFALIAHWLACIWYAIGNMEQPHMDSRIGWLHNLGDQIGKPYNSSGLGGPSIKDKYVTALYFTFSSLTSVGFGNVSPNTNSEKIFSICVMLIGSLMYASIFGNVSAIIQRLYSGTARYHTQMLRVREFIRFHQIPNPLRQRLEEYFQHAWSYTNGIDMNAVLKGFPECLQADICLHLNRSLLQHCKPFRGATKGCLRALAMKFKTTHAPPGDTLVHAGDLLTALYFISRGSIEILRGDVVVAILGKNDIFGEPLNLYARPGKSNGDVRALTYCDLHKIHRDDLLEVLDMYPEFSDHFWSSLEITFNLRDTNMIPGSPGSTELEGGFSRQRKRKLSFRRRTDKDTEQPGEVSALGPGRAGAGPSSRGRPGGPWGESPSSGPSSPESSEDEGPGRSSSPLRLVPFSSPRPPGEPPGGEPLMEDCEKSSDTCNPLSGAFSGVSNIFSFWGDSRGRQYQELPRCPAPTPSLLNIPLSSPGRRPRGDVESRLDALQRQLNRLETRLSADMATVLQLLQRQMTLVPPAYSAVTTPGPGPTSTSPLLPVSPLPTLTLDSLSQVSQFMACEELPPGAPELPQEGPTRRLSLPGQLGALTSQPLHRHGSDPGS

Compound | IC50 [1] [nM] | IC50 [2] [nM] | IC50 [3] [nM] | IC50 [4] [nM]
Cn1cc(-c2ccc(F)c(C(F)(F)F)c2)nc1C1CCN(c2cc(N)ncn2)CC1 | 102 | > 1000 | 22000 | –
COc1c(N)ncnc1N1CCC(c2nc(-c3ccc(F)c(C(F)(F)F)c3)cn2C)CC1 | 2.2 | 518 | 1200 | –
CN(C)CCn1cc(-c2ccc(F)c(C(F)(F)F)c2)nc1C1CCN(c2ncnc(N)c2C(N)=O)CC1 | 3.5 | 84 | 89000 | 4000
Cn1cc(-c2ccc(F)c(C(F)(F)F)c2)nc1C1CCN(c2ncnc(N)c2C(N)=O)CC1 | 3 | 1600 | 2300 | 1900
Cn1cc(-c2ccc(F)c(C(F)(F)F)c2)nc1C1CCN(c2ncnc(N)c2-c2ccccc2F)CC1 | 3 | > 1000 | 800 | –
Nc1ncnc(N2CCC(c3nc(-c4ccc(F)c(C(F)(F)F)c4)cn3CCN3CCC3)CC2)c1-c1ccc(F)cc1 | 2.4 | 23 | – | 1300
Cn1cc(-c2ccc(F)c(C(F)(F)F)c2)nc1C1CCN(c2ncnc(N)c2-c2ccncc2)CC1 | 2 | 930 | 400 | –
CN(C)CC(c1ccc(C(F)(F)F)cc1)N1CCN(c2ncnc(N)c2-c2ccc(F)cc2)CC1 (stereo not given) | 4.9 | > 1000 | 1200 | –
N#Cc1c(N)ncnc1N1CCC(c2nc(-c3ccc(F)c(C(F)(F)F)c3)cn2CCN2CCC2)CC1 | 0.8 | 2.2 | 52000 | –
C=Cc1c(N)ncnc1N1CCC(c2nc(-c3ccc(F)c(C(F)(F)F)c3)cn2CCN(C)C)CC1 | 3.5 | 9.1 | – | 1100
Nc1ncnc(N2CCC(c3nc(-c4ccc(F)c(C(F)(F)F)c4)cn3CCN3CCC3)CC2)c1Cl | 0.6 | 1 | 64000 | 1900
NCC(c1ccc(F)c(C(F)(F)F)c1)N1CCN(c2ncnc(N)c2-c2ccc(F)cc2)CC1 (stereo not given) | 14 | > 1000 | 2900 | –
Cn1cc(-c2ccc(F)c(C(F)(F)F)c2)nc1C1CCN(c2ncnc(N)c2C#N)CC1 | 1.3 | 260 | 300 | –
CCc1c(N)ncnc1N1CCC(c2nc(-c3ccc(F)c(C(F)(F)F)c3)cn2CCN(C)C)CC1 | 3.7 | 12 | – | –
C=Cc1c(N)ncnc1N1CCC(c2nc(-c3ccc(F)c(C(F)(F)F)c3)cn2CCN2CCC2)CC1 | 2.6 | 4.2 | – | 930
NCC(c1ccc(F)cc1)N1CCN(c2ncnc(N)c2-c2ccc(F)cc2)CC1 (stereo not given) | 4.4 | > 1000 | 1900 | –
